{"source": "patent US20250332265A1", "about": "“PSMA TARGETED CONJUGATE COMPOUNDS AND USES THEREOF” (priority 2021, published 2025)", "key": {"heterotopic C4-2 tumors": {"test_system": "heterotopic C4-2 tumors", "assay": "Antitumor activity in heterotopic C4-2 tumors", "format": "in vivo, mice", "text": "To show versatility of the antitumor activity of PSMA-1-VcMMAE-Cy5.5, we tested it in mice bearing heterotopic C4-2 tumors, which are androgen-independent prostate cancer cells endogenously expressing PSMA."}, "[1]": {"test_system": "heterotopic PC3pip tumors", "assay": "Heterotopic survival study", "format": "in vivo, mice", "conditions": "for tumor growth when given every 7 days: dosing every 7 days", "text": "Male athymic nude mice were implanted subcutaneously with 1×10^6 of PC3pip cells under the right dorsum of the mice. When tumor size reached approximately 100 mm^3 (tumor volume=Length×width^2/2), mice received drugs through tail vein injection. […] Animals were weighed and tumor size measured every other day for 90 days. Cures were defined as no tumor present at end of the 90-day study. When tumors became too large or animals were moribund they were euthanized. Five mice were used in each group."}, "[2]": {"test_system": "PSMA receptor expressed on the PC3pip cells", "assay": "In vitro cellular uptake studies, Example 1", "format": "cell-based, human", "conditions": "50 nM, 4 hours", "method": "PC3pip and PC3flu cells were seeded in p-Slide 8-Well Chamber Slide (ibidi GmbH) at 2,000 cells/well. When cells grew to 70% confluency, PSMA-1-VcMMAE-Cy5.5 or PSMA-1-McMMAE-Cy5.5 conjugations were added at 50 nM and incubated at 37° C. for 4 hours. Cells were washed with PBS and stained with DAPI and LysoOrange (Abcam) for 30 minutes at 37° and 5% CO2, after which they were washed again with PBS and filled with fresh medium. Selectivity was determined by including 20-fold excess of the PSMA-1 ligand. The uptake and localization of the drug conjugates were visualized under a Leica HyVolution SP8 confocal microscope at 40×."}, "[3]": {"test_system": "PSMA-positive PC3pip cells", "assay": "In vitro cytotoxicity assay (CCK-8), PC3pip", "format": "cell-based, human", "conditions": "for effect of protease inhibitor E64 on cell killing: co-incubation with 50 μM E64", "method": "(§1) Cells (1,000/well) were seeded in 96-well culture plates the day before treatment. Cells were incubated with various concentrations of drugs for 72 hours and cell viability evaluated by CCK-8 (Dojindo). The concentration required to reach 50% of cell proliferation was determined (IC50) by GraphPad Prism 3.0."}, "[4]": {"test_system": "α-tubulin in PC3pip and PC3flu cells", "assay": "Immunofluorescence analysis of alpha-tubulin", "format": "cell-based, human", "conditions": "5 nM, 24 hours", "method": "Cells on coverslips at about 70% confluency were incubated with 5 nM of MMAE, PSMA-1-VcMMAE-Cy5.5 or PSMA-1-McMMAE-Cy5.5 for 24 hours. Cells were washed and fixed with 4% paraformaldehyde for 10 minutes, permeabilized with 0.1% Triton™ X-100 for 10 minutes, and blocked with 1% BSA for 1 hour at room temperature. Alpha-tubulin (B5-1-2) Alexa Fluor 488 Mouse Monoclonal Antibody (Invitrogen) was then added at 2 μg/mL in 0.1% BSA and incubated for 3 hours at room temperature. Cells were counterstained with DAPI, mounted with Fluor-Mount aqueous mounting solution, and observed under Leica DM4000B fluorescence microscopy at 40×."}, "[5]": {"assay": "Stability of conjugates incubated with PBS, Example 1", "format": "physicochemical", "conditions": "without enzyme", "method": "To investigate if PSMA-targeted drug conjugates were cleavable by cathepsin B, the two conjugates were incubated with or without the enzyme and chromatographed by HPLC. When the conjugates were incubated with PBS, both PSMA-1-VcMMAE-Cy5.5 and PSMA-1-McMMAE-Cy5.5 were stable (FIG. 1D)."}, "PC3pip and PC3flu tumors": {"test_system": "PC3pip and PC3flu tumors", "assay": "In vivo NIR imaging studies, Example 1", "design": "species or system mice", "conditions": "40 nmol/kg i.v., fluorescence imaging", "method": "Under guidelines of the animal care and use committee at Case Western Reserve University (IACUC #150033) 6 to 8-week old male Balb/cathymic nude mice were implanted subcutaneously with 1×10^6 of PC3flu and PC3pip on the left and right dorsum respectively. Mice received 40 nmol/kg of PSMA-1-VcMMAE-Cy5.5 or PSMA-1-McMMAE-Cy5.5 in PBS via tail vein injection when tumors reached 10 mm in diameter. Fluorescence imaging was performed using the Maestro In Vivo Imaging system (Perkin-Elmer). Multispectral images were unmixed into their component spectra (PSMA probes, autofluorescence, and background) to quantitate the average fluorescence intensity associated with the tumors using regions of interest (ROIs) around the tumors."}, "orthotopic PC3pip tumors": {"test_system": "orthotopic PC3pip tumors", "assay": "Orthotopic survival study", "format": "in vivo, mice", "method": "Surgical orthotopic tumor implantation was performed as previously reported. Tumor growth/size was monitored using Siemens Acuson S2000 ultrasound scanner. When the tumors were at the appropriate size (5 mm as measured by ultrasound, approximately 2 weeks) animals were given PSMA-1-VcMMAE, PSMA-1-VcMMAE-Cy5.5, or PBS every four days with a total of 5 doses. Tumors were monitored every other day by ultrasound. Each group had five mice."}, "[6]": {"test_system": "metastatic PC3pip model (GFP labeled PC3pip cells)", "assay": "Metastatic survival study", "format": "in vivo, mice", "method": "Male athymic nude mice were injected into the left ventricle of the heart with 1×10^5 GFP labeled PC3pip cells to generate bone metastasis. One week later mice received 160 nmol/kg PSMA-1-VcMMAE-Cy5.5 or PBS every 4 days with a total of 5 doses and the progression of disease was monitored by GFP imaging. Five mice were used in each group."}, "[7]": {"test_system": "PSMA-negative PC3flu cells", "assay": "In vitro cytotoxicity assay (CCK-8), PC3flu", "format": "cell-based, human", "conditions": "versus PSMA-1-VcMMAE-Cy5.5", "method": "as §1"}, "[8]": {"assay": "In vitro cytotoxicity assay (CCK-8), PC3flu", "format": "cell-based, human", "conditions": "72 hours incubation, CCK-8; read-out: IC50 cytotoxicity, PC3flu cells", "method": "as §1"}, "[9]": {"assay": "Maximum tolerated dose (MTD)", "format": "in vivo, mice", "text": "Mice were monitored daily for 14 days."}, "[10]": {"assay": "In vitro cytotoxicity assay (CCK-8), PC3pip", "format": "cell-based, human", "conditions": "72 hours incubation", "method": "as §1"}}, "note": "pIC50: −log10 of the molar value. Several values for one entry are separate records, joined by “and”; a condition that tells them apart may be missing. Equal values may be shown once. Numbered stars: 1 amine (or outer) side, 2 acyl side, 3 side chain; on linkers, the order of the positions; unused ones are H or OH. Bridge positions count the residues as written; N and C are the ends. Square brackets hold non-standard residues; d marks the D form. Peptide text beside a SMILES is read from it. I, II: the chains in the order shown. * marks the point of attachment. ξ: configuration not given here. X4 = CN1/C(=C/C=C/C=C/C2=[N+](CCCCCC(=O)*)c3ccc4ccccc4c3C2(C)C)C(C)(C)c2c1ccc1ccccc21; Hexanoyl(6-succinimido-3yl) = O=C1CC([*:1])C(=O)N1CCCCCC(=O)[*:2]; X5 = CC[C@H](C)[C@@H]([C@H](CC(=O)[*:2])OC)N(C)[*:1]; Dolaproine = CO[C@@H]([C@@H]1CCCN1)[C@@H](C)C(=O)O; Dil = CC[C@H](C)[C@H](NC)[C@@H](CC(=O)O)OC; X2 = O=C1CC([*:2])C(=O)N1CCCCCC(=O)[*:1]; γGlu = O=C(O)[C@H](CCC(=O)[*:2])N[*:1]; PABC = O=C(OCc1ccc(N[*:1])cc1)[*:2]; ξγGlu = O=C(O)C(CCC(=O)[*:2])N[*:1]; X1 = C[C@@H](N*)[C@@H](O)c1ccccc1; Trx = NC[C@H]1CC[C@H](C(=O)O)CC1; X3 = O=C(C1CCC(CN[*:1])CC1)[*:2]; Cit = NC(=O)NCCC[C@H](N)C(=O)O; NMeV = CN[C@H](C(=O)O)C(C)C; ξE = NC(CCC(=O)O)C(=O)O; CO = O=C([*:1])[*:2]; ξK = NCCCCC(N)C(=O)O; Ahx = NCCCCCC(=O)O; ξC = NC(CS)C(=O)O", "data": [{"smiles": "CC[C@H](C)[C@@H]([C@H](CC(=O)N1CCC[C@H]1[C@H](OC)[C@@H](C)C(=O)N[C@H](C)[C@@H](O)c1ccccc1)OC)N(C)C(=O)[C@@H](NC(=O)[C@H](C(C)C)N(C)C(=O)OCc1ccc(NC(=O)[C@H](CCCNC(N)=O)NC(=O)[C@@H](NC(=O)CCCCCN2C(=O)CC(SCC(NC(=O)C(CCC(=O)O)NC(=O)C(CCC(=O)O)NC(=O)C(CCC(=O)O)NC(=O)CCCCCNC(=O)C3CCC(CNC(=O)CCC(NC(=O)NC(CCC(=O)O)C(=O)O)C(=O)O)CC3)C(=O)NCCCCCC(=O)NC(CCCCNC(=O)CCCCC[N+]3=C(/C=C/C=C/C=C4/N(C)c5ccc6ccccc6c5C4(C)C)C(C)(C)c4c3ccc3ccccc43)C(N)=O)C2=O)C(C)C)cc1)C(C)C", "note": "(stereo partly shown) [PSMA-1-VcMMAE-Cy5.5] (I: {ξE-CO-ξγGlu}-[X3][Ahx][ξE][ξE][ξE][ξC][Ahx][ξK](X4)-NH2 / II: V[Cit][PABC][NMeV]V[X5][Dolaproine]-X1; linker I:6-II:N via Hexanoyl(6-succinimido-3yl))", "values": [{"measurement": "cure rate", "setting": "heterotopic C4-2 tumors", "value": 40, "unit": "%"}, {"measurement": "cure rate (no tumors at end of 90-day study)", "setting": "[1]; 160 nmol/kg i.v. every 4 days, 5 doses", "value": 60, "unit": "%"}, {"measurement": "antitumor activity (tumor growth), words", "setting": "[1]; 160 nmol/kg i.v. every four days, 5 doses", "value": "effectively inhibited tumor growth"}, {"measurement": "tumor growth when given every 7 days", "setting": "[1]", "value": "greatly inhibited tumor growth"}, {"measurement": "cellular binding and uptake, competition with PSMA-1 ligand", "setting": "[2]", "value": "selective and specific for the PSMA receptor"}, {"measurement": "pIC50", "setting": "[3]; 72 hours incubation, CCK-8", "value": "9.08 and 9.12"}, {"measurement": "effect of protease inhibitor E64 on cell killing", "setting": "[3]", "value": "reduced the potency"}, {"measurement": "disruption of α-tubulin network", "setting": "[4]", "value": "selective disruption of tubulin in PC3pip cells"}, {"measurement": "stability when incubated with PBS", "setting": "[5]", "value": "stable"}, {"measurement": "time of peak uptake in PC3pip tumors", "setting": "PC3pip and PC3flu tumors", "value": 24, "unit": "h"}, {"measurement": "cure at day 90", "setting": "orthotopic PC3pip tumors; every four days, 5 doses", "value": 40, "unit": "%"}]}, {"smiles": "CC[C@H](C)[C@@H]([C@@H](CC(=O)N1CCC[C@H]1[C@H](OC)[C@@H](C)C(=O)N[C@H](C)[C@@H](O)c1ccccc1)OC)N(C)C(=O)[C@@H](NC(=O)[C@H](C(C)C)N(C)C(=O)OCc1ccc(NC(=O)[C@H](CCCNC(N)=O)NC(=O)[C@@H](NC(=O)CCCCCN2C(=O)CC(SC[C@H](NC(=O)[C@H](CCC(=O)O)NC(=O)[C@H](CCC(=O)O)NC(=O)[C@H](CCC(=O)O)NC(=O)CCCCCNC(=O)[C@H]3CC[C@H](CNC(=O)CC[C@H](NC(=O)N[C@@H](CCC(=O)O)C(=O)O)C(=O)O)CC3)C(=O)NCCCCCC(=O)N[C@@H](CCCCN)C(N)=O)C2=O)C(C)C)cc1)C(C)C", "note": "(stereo partly drawn) [PSMA-1-VcMMAE] (I: V[Cit][PABC][NMeV]V[Dil][Dolaproine]-X1 / II: {Glu-CO-γGlu-Trx-Ahx}-EEEC[Ahx]K-NH2; linker I:N-II:4 via X2)", "values": [{"measurement": "effect on survival and body weight, words", "setting": "[6]", "value": "prolong animal survival time with no body weight loss"}, {"measurement": "increase of IC50 on removal of the Cy5.5 moiety, PC3flu cells", "setting": "[7]", "value": 11.1, "unit": "fold"}, {"measurement": "pIC50", "setting": "[8]", "value": 6.65}, {"measurement": "therapeutic index (TI)", "setting": "[9]; MTD / lowest effective dose", "value": 40}, {"measurement": "MTD", "setting": "[9]; mouse, in vivo, iv, single dose i.v., tumor-free athymic nude mice", "value": 7.64, "unit": "µmol/kg"}, {"measurement": "MTD relative to MMAE", "setting": "[9]; single dose i.v.", "value": "more than 10 fold"}, {"measurement": "inhibition of PC3pip versus PC3flu tumor growth", "setting": "[1]; 955 nmol/kg", "value": "significantly more effective at inhibiting PSMA-positive PC3pip tumor growth than PSMA-negative PC3flu tumor growth"}, {"measurement": "cure (tumor free at 90 days)", "setting": "[1]; 3820 nmol/kg i.v. every 4 days, 5 doses", "value": 60, "unit": "%"}, {"measurement": "tumor growth when given every 7 days", "setting": "[1]", "value": "greatly inhibited tumor growth"}, {"measurement": "body weight loss", "setting": "[1]; even at the highest dose tested (3820 nmol/kg)", "value": "No body weight loss"}, {"measurement": "dose at which tumor growth inhibition starts", "setting": "[1]; mouse, in vivo", "value": 191, "unit": "nmol/kg"}, {"measurement": "pIC50", "setting": "[10]; CCK-8, read-out: IC50 cytotoxicity, PC3pip cells", "value": 8.33}, {"measurement": "selectivity ratio", "setting": "[10]; read-out: selectivity, differential cytotoxicity between PC3pip and PC3flu cells", "value": 48}, {"measurement": "ratio of IC50's between PC3pip and PC3flu cells", "setting": "[3]; 72 hours incubation", "value": 48.2}, {"measurement": "effect of protease inhibitor E64 on cell killing", "setting": "[3]", "value": "susceptible to E64 protease inhibition"}, {"measurement": "increase of IC50 on removal of the Cy5.5 moiety, PC3pip cells", "setting": "[3]; versus PSMA-1-VcMMAE-Cy5.5", "value": 6.2, "unit": "fold"}, {"measurement": "tumor free mice", "setting": "orthotopic PC3pip tumors; 3860 nmol/kg, five mice per group", "value": 1}]}]}
